The text below walks through data of patent publication US12612411B1, “Imidazopyrazine derivatives, process for preparation thereof, and their uses as luciferins” (INSTITUT PASTEUR, priority 2017, dated 2026).

The nature of data set [1]: Acidic hydrolysis of imidazo[1,2-a]pyrazin-3-yl acetate into the luciferin, LC/MS monitoring. It is filed as physicochemical. The following applies: DMSO / acidic ethanol (HCl), 50° C. The protocol: FIG. 1 illustrates the HPLC profiles over time for the acetyl hydrolysis of P-21 (M=451) into the corresponding luciferin Q-12 (M=409). Obtained on an Agilent apparatus, with a 3.5 μm XDB-C18 column and a water/methanol gradient (containing 5 mM ammonium formate, from 95-5 to 5-95 in 3.5 min, 3.5 min at 5-95, and then back at 95-5 in 0.5 min), UV monitoring set at […].
General protocol for the generation of solutions of imidazo[1,2-a]pyrazin-3(7H)-one Q by acidic hydrolysis of imidazo[1,2-a]pyrazin-3-yl acetate derivatives P. The considered acetate P (1 mg) was dissolved in DMSO (0.2 mL) and then diluted by adding a solution of acidic ethanol (0.3 ml) made from the addition of 37% hydrochloric acid (100 μl) on 100% ethanol (12 mL). This 0.5 mL solution was incubated at 50° C. for 2 hours to give a stock solution which was then stored at −80° C. […] Nota: these conditions are only adapted to the hydrolysis of the protecting group (as defined above) of the oxygen on position 2 of the imidazo[1,2-a]pyrazine ring system and not to the hydrolysis of any additional acetyl groups eventually present elsewhere on the substrate of this reaction.

The target in the next data set is T1, nanoKAZ luciferase (Oplophorus gracilirostris, UniProt Q9GV45, A31E/A60N/A81I/F95D/I117V/K70R/L54V/L99Q/M102K/N193R/P142E/Q151K/Q38R/Q45L/V71I/Y165I).
T1 construct: luciferase catalytic domain (nanoKAZ, 19 kDa) from the Oplophorus-derived luciferase; host or cells: cell-free: 1-Step Human Coupled IVT Kit, pT7CFE1-based vector
T1 sequence (Q9GV45 other isoform, or with tags, fused parts or gaps with the stated changes): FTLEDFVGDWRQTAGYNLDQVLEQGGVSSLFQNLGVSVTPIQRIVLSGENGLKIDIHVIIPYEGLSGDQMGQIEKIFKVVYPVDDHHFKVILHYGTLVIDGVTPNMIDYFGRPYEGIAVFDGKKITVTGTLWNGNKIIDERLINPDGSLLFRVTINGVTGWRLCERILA
As to the kind of experiment: In vitro bioluminescence screening of imidazo[1,2-a]pyrazin-3(7H)-ones with nanoKAZ expressed in vitro (96-well luminometer, 2 h kinetic). It is filed as biochemical. The following applies: furimazine = 1. In a few lines:
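nanoKAZ made by human coupled IVT, diluted 400-fold then 1/20 in DPBS + 0.1% Tween 20; luciferins generated in situ by acid hydrolysis of O-acetyl precursors (DMSO/acidic ethanol, 50 °C, 2 h). Luminescence followed kinetically for 2 h; max intensity, signal half-life and 10-min and 2-h AUC normalized to furimazine.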

In data set [2] the target is T2, nanoKAZ (Oplophorus gracilirostris, UniProt Q9GV45, A31E/A60N/A81I/F95D/I117V/K70R/L54V/L99Q/M102K/N193R/P142E/Q151K/Q38R/Q45L/V71I/Y165I).
T2 construct: luciferase catalytic domain (nanoKAZ, 19 kDa) from the Oplophorus-derived luciferase
T2 sequence (Q9GV45 other isoform, or with tags, fused parts or gaps with the stated changes): as above
Put plainly: Michaelis-Menten parameters of nanoKAZ from Lineweaver-Burk representation. It is filed as biochemical. The conditions noted are these: for Vmax: extrapolated from Lineweaver-Burk, constant enzyme concentration. The source says:
The two dotted lines (linear regression) are converging to the same intercept with the x-axis (−1/Km) and different intercepts with the y-axis (1/Vmax). The equations of the two linear regressions are indicated and the corresponding correlation factors (R^2) with the experimental data are reported.
Considering the hypothesis of a Michaelis-Menten mechanism for the nanoKAZ, the Km and Vmax were extrapolated from the Lineweaver-Burk representation of the enzyme activity catalyzing either Q-1 or Q-3. […] The data have been fitted with linear regression with satisfying high correlation factors (R). The Km are the same for both substrates (Km=2 μM) whereas the Vmax is 3-times lower for Q-1 (0.6·10^6 RLU/sec) than for Q-3 (2.0·10^6 RLU/sec).

The subject of data set [3] is protein chimeras fused to the nanoKAZ in transiently transfected HEK and Jurkat cell lines, and primary human T-cells. Put plainly: In cellulo bioluminescence imaging with a light microscope. It counts as cell-based. The source says:
FIG. 5 compares expression and location of protein chimeras fused to the nanoKAZ in transiently transfected HEK and Jurkat cell lines, and primary human T-cells: the cytokine receptor IL7Rα:nanoKAZ at the membrane (top), the enconsin tubulin binding protein EMTB:nanoKAZ associated with microtubules (middle), the transcription factor STAT5a:nanoKAZ dense throughout the cytoplasm and faint in the nucleus (bottom).
The acquisition of bioluminescence using a light microscope provides a quantitative measurement of light emission cell by cell, the main advantage. This is meaningful especially when the transfection efficiency is low in the case of nanoKAZ expression provided by plasmids. […] The higher is the bioluminescence efficiency, the lower is the exposure time and the lower is the sensitivity required for the detector or camera. NanoKAZ with developed substrates such as Q-3 or Q-12 opens the bioluminescence imaging to standard light microscope. The lower the exposure time, the higher the resolution, which is impeded by the motion of living cells. Any gain in light emission enhances the quality of images. Luciferase reporters or fragments can be fused to proteins targeting the cell surface, cytoplasm, organelles, nucleus or exosomes and can be carried by virus, host-infecting cells or agents, biologic complexes, beads or any particles. […]

In data set [4] the target is T2, nanoKAZ. Put plainly: Bioluminescence emission spectra. It is filed as biochemical. The source says:
(§1) Furimazine (Q-1) and derivatives have emission spectra centred on 460 nm but present large peaks bleeding beyond 580 nm. The bioluminescence obtained with the analogue Q-3 provides photons with 10% of them having a wavelength beyond 560 nm up to 600 nm. This wide spectra emission toward red is thus allowing the use of the nanok AZ/furimazine for in vivo imaging. The light emission beyond 580 is thousands times higher than red emitting firefly or beetle luciferases. IL7:nanoKAZ and analogue Q-3 were injected in mice.

For data set [5] the following is noted: cited from earlier work.
For data set [6], the target named is T2, nanoKAZ. Put plainly: Dynamic range of nanoKAZ bioluminescence versus serial enzyme dilutions. It is filed as biochemical. The following applies: constant volume 100 μL, constant substrate concentration. The protocol:
FIG. 3 illustrates dynamic range (relative units (RLU) versus serial dilutions) of nanok AZ, which was plotted using the imidazo[1,2-a]pyrazin-3(7H)-one Q-3.
As depicted in FIG. 3, the dynamic range of nanoKAZ was assessed using luciferin Q-3. The enzyme was diluted three by three times and the bioluminescence has been measured on a constant volume (100 (L) and at constant concentration of the substrate. The bioluminescence is linear with the enzyme concentration over 5 orders of magnitude, overwhelming the detection system. This range can be increase by two orders of magnitude by decreasing 2 times the volume for high enzyme concentration and by increasing two times the volume for low enzyme concentration.

A further data set relates to IL7:nanoKAZ. As to the kind of experiment: In vivo bioluminescence imaging (Ivis) after injection of IL7:nanoKAZ and substrate. The following applies: IL7:nanoKAZ and substrate injected in mice.
Description: as §1

On to `CCc1ccc(Cc2nc3c(Cc4ccccc4)nc(-c4ccccc4)cn3c2OC(C)=O)o1` [P-21, 8-Benzyl-2-((5-ethylfuran-2-yl)methyl)-6-phenylimidazo[1,2-a]pyrazin-3-yl acetate], for which the “time to complete hydrolysis into the luciferin Q-12” value in data set [1] is “complete reaction in less than two hours”.

As for `O=c1c(Cc2ccco2)nc2c(Cc3ccccc3)[nH]c(-c3ccccc3)cn1-2` [Q-1, 8-benzyl-2-(furan-2-ylmethyl)-6-phenylimidazo[1,2-a]pyrazin-3(7H)-one, reference compound], at nanoKAZ luciferase (Table 1), the “V1: maximum intensity, normalized using furimazine (Q-1) as a reference” value (from here on “V1: maximum intensity, normalized”) turned out to be 1; the “V3: area under the curve for ten minutes, normalized using furimazine (Q-1) as a reference” value was 1; the “V4: area under the curve for two hours, normalized using furimazine (Q-1) as a reference” value is listed as 1. Further, on nanoKAZ luciferase (second table), the “V3: area under the curve for 2 hours, normalized using furimazine (Q-1) as a reference” value came to 1 and the “V4: area under the curve for ten minutes, normalized using furimazine (Q-1) as a reference” value is on record as 1. Also, the “V1: maximum intensity, normalized” value at nanoKAZ luciferase (second table, luciferins made in situ from O-protected P) stood at 1. For the same compound, the “Vmax, times lower than for Q-3” value on nanoKAZ [2] (Q-1 versus Q-3) is 3 times. Further, the Vmax on nanoKAZ [2] was 0.6·10^6 RLU/sec. Further, in data set [3] (nanoKAZ/furimazine versus nanoKAZ/Q-3), the “extension of experience times to get the same quality as with nanoKAZ/analogue Q-3” value worked out at 3 folds. This compound also returned an emission spectra centre on nanoKAZ [4] of 460 nm. The storage stability result in data set [5] (commercially available luciferins) is “very weak storage stability”. Also, the “permitted storage time at 4° C.” value in data set [5] (recommended storage conditions) is “up to two weeks only”.

Take `Cc1ccc(Cc2nc3c(Cc4ccccc4)[nH]c(-c4ccccc4)cn-3c2=O)o1` [Q-3, 8-benzyl-2-((5-methylfuran-2-yl)methyl)-6-phenylimidazo[1,2-a]pyrazin-3(7H)-one]: at nanoKAZ luciferase (Table 1), the “V1: maximum intensity, normalized” value was 2.7; the “V3: area under the curve for ten minutes, normalized using furimazine (Q-1) as a reference” value worked out at 2.39; the “V4: area under the curve for two hours, normalized using furimazine (Q-1) as a reference” value turned out to be 1.3. For the same compound, the Vmax on nanoKAZ [2] is 2.0·10^6 RLU/sec. Besides, the “range over which bioluminescence is linear with the enzyme concentration” value on nanoKAZ [6] is recorded as 5 orders of magnitude. The “light emission in live-cell images compared with Q-1” value in data set [3] (images acquired for one second from live cells, FIG. 5) is on record as “gain of light emission”. For the same compound, at nanoKAZ [4], the “photons having a wavelength beyond 560 nm up to 600 nm” value is on record as 10%. In addition, the “in vivo bioluminescence image quality” value in the data set with IL7:nanoKAZ is listed as “Quantitative images of high quality were acquired”.
